Data taken from patent publication US9920074B2 (ACEA BIOSCIENCES INC., priority 2013, dated 2018).

Key:
Type in all cases: cell-based
[1] = test system: Stat5 phosphorylation in NK-92 cells; experiment: Western blotting assay for Stat5; details: NK92, 1 hour, IL-2 stimulation, read-out: Stat5 inhibition
Method: (§1) All cell lines were obtained from the American Type Culture Collection and were maintained at 37° C. with 5% CO2. Ramos cell line was maintained in media supplemented with 10% fetal bovine serum, penicillin (100 units/mL) and streptomycin (100 μg/mL). NK-92 cell line was maintained in media supplemented with 10% fetal bovine serum and 10% horse serum, penicillin (100 units/mL) and streptomycin (100 μg/mL), IL-2 10 ng/mL. Goat F(ab′)2 Anti-Human IgM-UNLB was obtained from SouthernBiotech. IL-2 was obtained from Peprotech.
(§2) NK-92 cells were treated with compounds at the dosed indicated for 1 hour in incubator, followed by the IL-2 stimulation for 15 minutes. Cells were then collected and lysed to prepare the cellular extraction. Western blots were performed on cell lysate using Phospho-Jak3, Jak3, Phospho-Stat5, Stat5 antibodies (Cell Signaling Technology). The intensity of blotting band was acquired using Image Lab (Bio-Rad) software, and the IC50 of target was generated with GraphPad Prism.

[2] = target: T1, Btk (Tyr223) phosphorylation in Ramos cells (Homo sapiens, UniProt Q06187); experiment: Btk Tyr223 phosphorylation inhibition, western blotting assay (Example 72); details: Btk Tyr223 phosphorylation, 45 min, 12 μg/mL IgM, read-out: BTK Inhibition
T1 construct: endogenous in cells; host or cells: Ramos cells (ATCC)
Method: Ramos cell line was obtained from the American Type Culture Collection and was maintained at 37° C. with 5% CO2, in media supplemented with 10% fetal bovine serum, penicillin (100 units/mL) and streptomycin (100 μg/mL), Goat F(ab′)2 Anti-Human IgM-UNLB was obtained from SouthernBiotech.
(§3) Ramos cells were treated with compounds at indicated doses for 45 min at room temperature, followed by stimulation of 12 μg/mL of IgM for 30 min, and then lysed. Western blots were performed on the cell lysate using Phospho-Btk (Tyr223), Phospho-Btk (Tyr551), Btk, Phospho-PLCγ2 (Tyr1217), PLCγ2, Phospho-p44/42 MAPK (Erk1/2) (Thr202/Tyr204) and p44/42 MAPK (Erk1/2) antibodies (Cell Signaling Technology). The density of blotting band was acquired using ImageJ software, and the IC50 of Btk (Tyr223) phosphorylation was fitted using a non-linear regression model by GraphPad Prism version 4.0.

[3] = target: T1, Btk (Tyr223) phosphorylation in Ramos cells; experiment: Western blotting assay for Btk (Example 73); details: 45 min, 6 μg/mL anti-IgM, read-out: Btk Inhibition
Method: as §1
as §3, with “of 6” for “of 12”, “of anti-IgM” for “of IgM”, “GraphPad Prism.” for “GraphPad Prism version 4.0.”

[4] = target: T2, free Btk protein from Ramos cells (Homo sapiens, UniProt Q06187); experiment: Btk target site occupancy ELISA assay; details: 1 h, ELISA, read-out: Btk Occupancy Assay (IC50)
T2 construct: endogenous in cells; host or cells: Ramos cells (ATCC)
Method: (§4) Ramos cells were treated with Compound I-1 at indicated concentrations for 1 h, followed by stimulation with 6 μg/mL of IgM for 30 mm, and then lysed. Lysates were incubated with Compound I-21 (biotin labeled) at a final concentration of 1 μM in a PBS, 0.05% Tween-20, 1% BSA solution while shaking for 1 h at room temperature. Samples were transferred to a streptavidin-coated 96-well ELISA plate and mixed while shaking for 1 h at room temperature. The Btk antibody (BD 611116, 1:1000 dilution in PBS+0.05% Tween-20+0.5% BSA) was then applied and incubated for 1 h at room temperature. After wash, goat anti-mouse-HRP (Pierce 31432, 1:1000 dilution in PBS+0.05% Tween-20+0.5% BSA) was added and incubated for 1 h at room temperature. The ELISA was developed with addition of tetramethyl benzidine (TMB) followed by Stop Solution and read at OD 450 nm.
as §4, with “Compounds” for “Compound I-1”, “anti-IgM” for “IgM”, “diluted” for “dilution”, “tetramethylbenzidine” for “tetramethyl benzidine”

[5] = target: T3, Jak3 phosphorylation in NK-92 cells (Homo sapiens, UniProt P52333); experiment: Western blotting assay for Jak3; details: 1 hour, IL-2 stimulation, read-out: Jak3 inhibition
T3 construct: endogenous in cells; host or cells: NK-92 cells (ATCC)
T3 sequence (P52333 1-1124): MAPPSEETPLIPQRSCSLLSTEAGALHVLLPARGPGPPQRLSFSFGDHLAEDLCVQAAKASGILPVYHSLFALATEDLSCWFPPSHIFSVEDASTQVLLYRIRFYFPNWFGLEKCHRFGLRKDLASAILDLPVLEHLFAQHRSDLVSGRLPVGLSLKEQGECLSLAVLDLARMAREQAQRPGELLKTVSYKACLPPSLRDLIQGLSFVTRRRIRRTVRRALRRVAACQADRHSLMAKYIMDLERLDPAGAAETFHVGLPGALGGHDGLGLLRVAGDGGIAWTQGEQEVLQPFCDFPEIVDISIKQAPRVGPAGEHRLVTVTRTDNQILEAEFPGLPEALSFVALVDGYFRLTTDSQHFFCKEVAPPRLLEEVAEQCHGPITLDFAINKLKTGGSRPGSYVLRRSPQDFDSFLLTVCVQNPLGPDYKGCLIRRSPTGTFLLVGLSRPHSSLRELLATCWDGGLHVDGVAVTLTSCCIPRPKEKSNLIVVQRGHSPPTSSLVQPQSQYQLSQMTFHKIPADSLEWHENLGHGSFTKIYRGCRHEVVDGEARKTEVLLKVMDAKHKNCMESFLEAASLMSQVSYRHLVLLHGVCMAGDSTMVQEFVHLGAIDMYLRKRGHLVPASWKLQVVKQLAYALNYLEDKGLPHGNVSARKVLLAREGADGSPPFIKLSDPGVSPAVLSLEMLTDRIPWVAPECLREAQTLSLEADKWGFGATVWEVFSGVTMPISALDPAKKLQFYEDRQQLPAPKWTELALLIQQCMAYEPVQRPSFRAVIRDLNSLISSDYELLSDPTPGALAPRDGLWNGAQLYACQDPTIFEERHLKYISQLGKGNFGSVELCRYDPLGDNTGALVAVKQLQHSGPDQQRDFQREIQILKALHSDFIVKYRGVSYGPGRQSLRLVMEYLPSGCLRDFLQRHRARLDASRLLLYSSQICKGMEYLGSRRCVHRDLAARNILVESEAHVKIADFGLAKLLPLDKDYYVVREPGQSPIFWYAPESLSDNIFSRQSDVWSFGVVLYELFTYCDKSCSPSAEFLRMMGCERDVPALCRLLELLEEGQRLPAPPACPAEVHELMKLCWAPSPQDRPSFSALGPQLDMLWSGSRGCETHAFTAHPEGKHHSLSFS
Method: as §1, §2

T1 sequence (Q06187 whole entry): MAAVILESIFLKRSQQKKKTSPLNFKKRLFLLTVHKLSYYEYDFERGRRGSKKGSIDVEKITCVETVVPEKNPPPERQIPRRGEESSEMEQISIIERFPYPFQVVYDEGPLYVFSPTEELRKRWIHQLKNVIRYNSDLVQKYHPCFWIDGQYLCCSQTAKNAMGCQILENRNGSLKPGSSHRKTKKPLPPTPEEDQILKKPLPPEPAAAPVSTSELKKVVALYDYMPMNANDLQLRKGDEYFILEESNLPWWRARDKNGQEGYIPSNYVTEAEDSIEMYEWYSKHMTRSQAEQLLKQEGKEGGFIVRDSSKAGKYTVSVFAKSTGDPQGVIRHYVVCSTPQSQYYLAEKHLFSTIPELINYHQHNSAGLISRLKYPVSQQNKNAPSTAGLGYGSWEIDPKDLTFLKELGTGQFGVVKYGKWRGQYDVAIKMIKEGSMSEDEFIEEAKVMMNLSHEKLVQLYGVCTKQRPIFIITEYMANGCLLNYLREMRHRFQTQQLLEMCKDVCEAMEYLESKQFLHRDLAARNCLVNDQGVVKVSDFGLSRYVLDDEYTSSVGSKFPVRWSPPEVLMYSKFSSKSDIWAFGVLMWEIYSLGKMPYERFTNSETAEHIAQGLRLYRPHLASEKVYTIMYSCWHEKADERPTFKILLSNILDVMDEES
T2 sequence (Q06187 whole entry): as above

| Structure (SMILES) | IC50 [1] | IC50 [2] | IC50 [3] | IC50 [4] | IC50 [5] |
| --- | --- | --- | --- | --- | --- |
| C=CC(=O)Nc1cccc(Oc2nc(Nc3ccc(N4CCN(CCF)CC4)c(F)c3)ncc2OC)c1 [Compound I-3, N-(3-(2-(3-fluoro-4-(4-(2-fluoroethyl)piperazin-1-yl)phenylamino)-5-methoxypyrimidin-4-yloxy)phenyl)acrylamide] | 200 to 400 nM | < 10 nM | ≤ 10 nM |  |  |
| C=CC(=O)Nc1cccc(Nc2nc(Nc3ccc(N4CCN(CCF)CC4)c(F)c3)ncc2OC)c1 [Compound I-7] | ≥ 400 nM | 10 to 100 nM | 10 to 100 nM |  |  |
| C=CC(=O)Nc1cccc(Oc2nc(Nc3ccc(N4CCN(CCF)CC4)cc3)ncc2OC)c1 [Compound I-9] | 200 to 400 nM | < 10 nM | ≤ 10 nM |  |  |
| C=CC(=O)Nc1cccc(Oc2nc(Nc3ccc(OCCOC)cc3)nc3[nH]ccc23)c1 [Compound I-10, N-(3-(2-(4-(2-methoxyethoxy)phenylamino)-7H-pyrrolo[2,3-d]pyrimidin-4-yloxy)phenyl)acrylamide] | 200 to 400 nM | < 10 nM | ≤ 10 nM | 10 to 100 nM |  |
| C=CC(=O)Nc1cccc(Oc2nc(Nc3ccc(N4CCN(CCF)CC4)cc3)ncc2F)c1 [Compound I-12] | 200 to 400 nM | 10 to 100 nM | 10 to 100 nM |  |  |
| C=CC(=O)Nc1cccc(Oc2nc(Nc3ccc(N[C@@H]4CCN(CCF)C4)cc3)ncc2OC)c1 [Compound I-14, (R)—N-(3-(2-(4-(1-(2-fluoroethyl)pyrrolidin-3-ylamino)phenylamino)-5-methoxypyrimidin-4-yloxy)phenyl)acrylamide] | ≥ 400 nM | 10 to 100 nM | 10 to 100 nM |  |  |
| C=CC(=O)Nc1cccc(Nc2nc(Nc3ccc(N[C@H]4CCN(CCF)C4)cc3)ncc2F)c1 [Compound I-15] | ≥ 400 nM | < 10 nM | ≤ 10 nM |  |  |
| C=CC(=O)Nc1cccc(Nc2nc(Nc3ccc(N[C@@H]4CCN(CCF)C4)cc3)ncc2F)c1 [Compound I-18] | 200 to 400 nM | < 10 nM | ≤ 10 nM |  |  |

Further lines, results first:

| IC50 [1] | IC50 [2] | IC50 [3] | IC50 [4] | IC50 [5] | Structure (SMILES) |
| --- | --- | --- | --- | --- | --- |
| 200 to 400 nM | < 10 nM | ≤ 10 nM |  |  | C=CC(=O)Nc1cccc(Nc2nc(Nc3ccc(N4CCN(CCF)CC4)c(F)c3)ncc2F)c1 [Compound I-4, N-(3-((5-fluoro-2-((3-fluoro-4-(4-(2-fluoroethyl)piperazin-1yl)phenyl)amino)pyrimidin-4-yl)amino)phenyl)acrylamide] |
| 200 to 400 nM | < 10 nM | ≤ 10 nM |  |  | C=CC(=O)Nc1cccc(Nc2nc(Nc3ccc(N4CCN(CCF)CC4)cc3)ncc2OC)c1 [Compound I-5] |
| 200 to 400 nM | < 10 nM | ≤ 10 nM |  |  | C=CC(=O)Nc1ccccc1Nc1nc(Nc2ccc(N3CCN(CCF)CC3)cc2)ncc1F [Compound I-6, N-(2-(5-fluoro-2-(4-(4-(2-fluoroethyl)piperazin-1-yl)phenylamino)pyrimidin-4-ylamino)phenyl)acrylamide] |
|  | < 10 nM |  |  |  | C=CC(=O)Nc1cccc(Oc2nc(Nc3ccc(N4CCN(CCF)CC4)c(F)c3)ncc2F)c1 [Compound I-8] |
| ≥ 400 nM | 10 to 100 nM | 10 to 100 nM |  |  | C=CC(=O)Nc1cccc(Nc2nc(Nc3ccc(OCCOC)cc3)nc3[nH]ccc23)c1 [Compound I-11, N-(3-(2-(4-(2-methoxyethoxy)phenylamino)-7H-pyrrolo[2,3-d]pyrimidin-4-ylamino)phenyl)acrylamide] |
| ≥ 400 nM | < 10 nM | ≤ 10 nM | ≤ 10 nM |  | C=CC(=O)Nc1cccc(Oc2nc(Nc3ccc(N[C@H]4CCN(CCF)C4)cc3)ncc2OC)c1 [Compound I-13, (S)—N-(3-(2-(4-(1-(2-fluoroethyl)pyrrolidin-3-ylamino)phenylamino)-5-methoxypyrimidin-4-yloxy)phenyl)acrylamide] |
| ≥ 400 nM | < 10 nM | ≤ 10 nM |  |  | C=CC(=O)Nc1cccc(Nc2nc(Nc3ccc(N[C@H]4CCN(CCF)C4)cc3)ncc2OC)c1 [Compound I-16, (S)—N-(3-(2-(4-(1-(2-fluoroethyl)pyrrolidin-3-ylamino)phenylamino)-5-methoxypyrimidin-4-ylamino)phenyl)acrylamide] |
| ≥ 400 nM | < 10 nM | ≤ 10 nM |  |  | C=CC(=O)Nc1cccc(Nc2nc(Nc3ccc(N[C@@H]4CCN(CCF)C4)cc3)ncc2OC)c1 [Compound I-17, (R)—N-(3-(2-(4-(1-(2-fluoroethyl)pyrrolidin-3-ylamino)phenylamino)-5-methoxypyrimidin-4-ylamino)phenyl)acrylamide] |
| ≥ 400 nM |  | ≤ 10 nM | ≤ 10 nM | ≥ 400 nM | C=CC(=O)Nc1cccc(Oc2nc(Nc3ccc(N4CCN(CCOC)CC4)cc3)ncc2OC)c1 [Compound I-25a, N-(3-(5-methoxy-2-(4-(4-(2-methoxyethyl)piperazin-1-yl)phenylamino)pyrimidin-4-yloxy)phenyl)acrylamide] |
